“And” between values parts separate entries of the source, which are not always exact repeats. Equal entries are not always repeated. Inconclusive results and toxic doses are left out. The calls were made as follows: active = survival T/C of 150% or more; inactive = T/C below 125% in these data.
Tested on: P388 leukemia ip, CD2F1 mice, survival T/C
Assay: NCI In Vivo Anticancer Drug Screen. Data for tumor model P388 Leukemia (intraperitoneal) in CD2F1 (CDF1) mice
Conditions: endpoint: median survival time, higher = longer survival
Procedure, shortened: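 Mice carrying the transplanted tumor received test compound or vehicle. Survival was recorded in each group, and the value is the treated-group measurement divided by that of the vehicle-treated control group.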

Measured: T/C

CC[C@]1(O)C[C@H]2CN(CCc3c([nH]c4ccccc34)[C@@](C(=O)OC)(c3cc4c(cc3OC)N(C=O)[C@H]3[C@@](O)(C(=O)OC)[C@H](OC(C)=O)[C@]5(CC)C=CCN6CC[C@]43[C@@H]65)C2)C1
inactive: dose: 0.08 mg/kg/injection, schedule: Q01DX009 (ip), vehicle: water 115 % of control | dose: 0.18 mg/kg/injection, schedule: Q01DX005 (ip), vehicle: saline 110 % of control and 123 % of control | dose: 0.22 mg/kg/injection, schedule: Q01DX009 (ip), vehicle: saline 114 % of control | dose: 0.22 mg/kg/injection, schedule: Q01DX009 (ip), vehicle: water 113 % of control | dose: 0.25 mg/kg/injection, schedule: Q01DX001 (ip), vehicle: saline with Tween-80 115 % of control | dose: 0.25 mg/kg/injection, schedule: Q01DX001 (iv), vehicle: saline 122 % of control | dose: 0.25 mg/kg/injection, schedule: Q04DX003 (iv), vehicle: saline 120 % of control | dose: 0.3 mg/kg/injection, schedule: Q01DX005 (ip), vehicle: saline 112 % of control | dose: 0.33 mg/kg/injection, schedule: Q01DX009 (ip), vehicle: saline 113 % of control | dose: 0.36 mg/kg/injection, schedule: Q04DX003 (iv), vehicle: saline 119 % of control and 123 % of control | dose: 0.37 mg/kg/injection, schedule: Q04DX002 (ip), vehicle: saline 117 % of control | dose: 0.4 mg/kg/injection, schedule: Q04DX003 (ip), vehicle: saline 113 % of control | dose: 0.5 mg/kg/injection, schedule: Q04DX003 (oral), vehicle: water 100 % of control | dose: 1.0 mg/kg/injection, schedule: Q04DX003 (oral), vehicle: water 106 % of control | dose: 2.0 mg/kg/injection, schedule: Q04DX003 (oral), vehicle: water 102 % of control | dose: 2.7 mg/kg/injection, schedule: Q04DX003 (iv), vehicle: saline 100 % of control | dose: 3.0 mg/kg/injection, schedule: Q04DX002 (ip), vehicle: saline 99 % of control | dose: 4.0 mg/kg/injection, schedule: Q01DX001 (iv), vehicle: saline 121 % of control | dose: 4.0 mg/kg/injection, schedule: Q04DX003 (oral), vehicle: water 110 % of control | dose: 4.5 mg/kg/injection, schedule: Q01DX001 (ip), vehicle: saline 104 % of control
active: dose: 0.06 mg/kg/injection, schedule: Q01DX010 (ip), vehicle: saline 168 % of control | dose: 0.08 mg/kg/injection, schedule: Q01DX009 (ip), vehicle: saline 172 % of control | dose: 0.12 mg/kg/injection, schedule: Q01DX009 (ip), vehicle: water 166 % of control | dose: 0.12 mg/kg/injection, schedule: Q04DX003 (ip), vehicle: saline 163 % of control | dose: 0.13 mg/kg/injection, schedule: Q01DX005 (ip), vehicle: saline 161 % of control and 168 % of control | dose: 0.13 mg/kg/injection, schedule: Q01DX010 (ip), vehicle: saline 181 % of control | dose: 0.15 mg/kg/injection, schedule: Q01DX009 (ip), vehicle: saline 190 % of control | dose: 0.2 mg/kg/injection, schedule: Q01DX009 (ip), vehicle: saline 169 % of control | dose: 0.2 mg/kg/injection, schedule: Q04DX003 (ip), vehicle: water 196 % of control | dose: 0.25 mg/kg/injection, schedule: Q01DX005 (ip), vehicle: saline 180 % of control and 184 % of control | dose: 0.25 mg/kg/injection, schedule: Q01DX010 (ip), vehicle: saline 177 % of control | dose: 0.3 mg/kg/injection, schedule: Q04DX002 (ip), vehicle: saline 150 % of control | dose: 0.36 mg/kg/injection, schedule: Q01DX009 (ip), vehicle: water 150 % of control | dose: 0.36 mg/kg/injection, schedule: Q04DX003 (ip), vehicle: saline 167 % of control and 169 % of control and 174 % of control | dose: 0.39 mg/kg/injection, schedule: Q04DX002 (ip), vehicle: saline 154 % of control and 164 % of control | dose: 0.4 mg/kg/injection, schedule: Q01DX005 (ip), vehicle: saline 171 % of control | dose: 0.43 mg/kg/injection, schedule: Q04DX002 (ip), vehicle: saline 153 % of control and 176 % of control | dose: 0.44 mg/kg/injection, schedule: Q04DX002 (ip), vehicle: saline 162 % of control | dose: 0.5 mg/kg/injection, schedule: Q04DX004 (ip), vehicle: saline 169 % of control | dose: 0.53 mg/kg/injection, schedule: Q04DX003 (ip), vehicle: saline 179 % of control and 182 % of control | dose: 0.6 mg/kg/injection, schedule: Q01DX009 (ip), vehicle: saline 200 % of control | dose: 0.6 mg/kg/injection, schedule: Q04DX003 (ip), vehicle: saline 198 % of control | dose: 0.65 mg/kg/injection, schedule: Q04DX002 (ip), vehicle: saline 161 % of control and 168 % of control | dose: 0.67 mg/kg/injection, schedule: Q04DX002 (ip), vehicle: saline 174 % of control | dose: 0.72 mg/kg/injection, schedule: Q04DX002 (ip), vehicle: saline 158 % of control and 192 % of control | dose: 0.8 mg/kg/injection, schedule: Q01DX005 (ip), vehicle: saline 186 % of control | dose: 0.8 mg/kg/injection, schedule: Q04DX003 (ip), vehicle: water 191 % of control | dose: 0.8 mg/kg/injection, schedule: Q04DX003 (iv), vehicle: saline 161 % of control and 168 % of control | dose: 1.0 mg/kg/injection, schedule: Q01DX003 (ip), vehicle: saline 163 % of control | dose: 1.0 mg/kg/injection, schedule: Q04DX002 (ip), vehicle: saline 184 % of control | dose: 1.0 mg/kg/injection, schedule: Q04DX003 (iv), vehicle: saline 182 % of control | dose: 1.08 mg/kg/injection, schedule: Q04DX002 (ip), vehicle: saline 167 % of control and 177 % of control | dose: 1.2 mg/kg/injection, schedule: Q04DX002 (ip), vehicle: saline 169 % of control and 179 % of control | dose: 1.2 mg/kg/injection, schedule: Q04DX003 (iv), vehicle: saline 173 % of control and 177 % of control | dose: 1.3 mg/kg/injection, schedule: Q01DX001 (ip), vehicle: saline 156 % of control | dose: 1.5 mg/kg/injection, schedule: Q04DX002 (ip), vehicle: saline 161 % of control | dose: 1.8 mg/kg/injection, schedule: Q04DX002 (ip), vehicle: saline 191 % of control and 200 % of control | dose: 1.8 mg/kg/injection, schedule: Q04DX003 (iv), vehicle: saline 167 % of control and 182 % of control | dose: 2.0 mg/kg/injection, schedule: Q01DX001 (ip), vehicle: Klucel (hydroxypropylcellulose) (HPC) 155 % of control and 162 % of control | dose: 2.0 mg/kg/injection, schedule: Q01DX001 (ip), vehicle: saline with Tween-80 157 % of control | dose: 2.0 mg/kg/injection, schedule: Q01DX001 (iv), vehicle: saline 154 % of control | dose: 2.0 mg/kg/injection, schedule: Q04DX002 (ip), vehicle: saline 182 % of control | dose: 2.7 mg/kg/injection, schedule: Q04DX003 (ip), vehicle: saline 179 % of control | dose: 3.0 mg/kg/injection, schedule: Q01DX001 (ip), vehicle: saline 170 % of control and 192 % of control | dose: 4.0 mg/kg/injection, schedule: Q01DX001 (ip), vehicle: Klucel (hydroxypropylcellulose) (HPC) 167 % of control and 174 % of control | dose: 4.0 mg/kg/injection, schedule: Q01DX001 (ip), vehicle: saline with Tween-80 168 % of control | dose: 8.0 mg/kg/injection, schedule: Q01DX001 (ip), vehicle: Klucel (hydroxypropylcellulose) (HPC) 194 % of control

NC(=O)c1csc(C2OC3COP(=O)(O)OC3C2O)n1 (stereo not given)
active: dose: 200.0 mg/kg/injection, schedule: Q01DX005 (ip), vehicle: water 152 % of control | dose: 400.0 mg/kg/injection, schedule: Q01DX005 (ip), vehicle: water 155 % of control
inactive: dose: 12.5 mg/kg/injection, schedule: Q01DX005 (ip), vehicle: water 105 % of control | dose: 25.0 mg/kg/injection, schedule: Q01DX005 (ip), vehicle: water 105 % of control | dose: 50.0 mg/kg/injection, schedule: Q01DX005 (ip), vehicle: water 114 % of control and 118 % of control | dose: 100.0 mg/kg/injection, schedule: Q01DX005 (ip), vehicle: water 123 % of control and 124 % of control

CC(=O)OCc1c(-c2ccccc2)nc2n1CCS2
inactive: dose: 12.5 mg/kg/injection, schedule: Q01DX001 (ip), vehicle: Klucel (hydroxypropylcellulose) (HPC) 101 % of control and 95 % of control | dose: 25.0 mg/kg/injection, schedule: Q01DX001 (ip), vehicle: Klucel (hydroxypropylcellulose) (HPC) 114 % of control and 106 % of control | dose: 50.0 mg/kg/injection, schedule: Q01DX001 (ip), vehicle: Klucel (hydroxypropylcellulose) (HPC) 108 % of control and 107 % of control | dose: 100.0 mg/kg/injection, schedule: Q01DX001 (ip), vehicle: Klucel (hydroxypropylcellulose) (HPC) 86 % of control

O=C1NC(=O)C(CCCCCl)N1 (stereo not given)
inactive: dose: 50.0 mg/kg/injection, schedule: Q01DX005 (ip), vehicle: Klucel (hydroxypropylcellulose) (HPC) 100 % of control | dose: 100.0 mg/kg/injection, schedule: Q01DX005 (ip), vehicle: Klucel (hydroxypropylcellulose) (HPC) 102 % of control | dose: 200.0 mg/kg/injection, schedule: Q01DX005 (ip), vehicle: Klucel (hydroxypropylcellulose) (HPC) 98 % of control
